Reference: PubChem BioAssay AID214 (DTP/NCI, 2004)
“And” between values parts separate entries of the source, which are not always exact repeats. Identical values can stand only once. Results filed as inconclusive are left out.

System: B6C3F1 mice, colon carcinoma 38 s.c., T/C
Test: NCI In Vivo Anticancer Drug Screen. Data for tumor model Colon Carcinoma 38 (subcutaneous) in B6C3F1 mice
Conditions: endpoint: median tumor weight (est.), higher = larger tumour
Procedure: The antitumor activity of compounds was measured in mice bearing transplantable tumors. Survival or tumor size were measured and the results are expressed as the measurement made in the treated group (T) divided by the measurement made in the vehicle treated control group (C). The tumor model used in this assay is Colon Carcinoma 38 (subcutaneous) in B6C3F1 mice

[1] = dose: 100.0 mg/kg/injection, schedule: Q07DX002 (ip), vehicle: saline with Tween-80
[2] = dose: 200.0 mg/kg/injection, schedule: Q07DX002 (ip), vehicle: saline with Tween-80
[3] = dose: 25.0 mg/kg/injection, schedule: Q07DX002 (ip), vehicle: Klucel (hydroxypropylcellulose) (HPC)
[4] = dose: 50.0 mg/kg/injection, schedule: Q07DX002 (ip), vehicle: Klucel (hydroxypropylcellulose) (HPC)
[5] = dose: 100.0 mg/kg/injection, schedule: Q07DX002 (ip), vehicle: Klucel (hydroxypropylcellulose) (HPC)
[6] = dose: 200.0 mg/kg/injection, schedule: Q07DX002 (ip), vehicle: Klucel (hydroxypropylcellulose) (HPC)

In the case of COc1ccc(S(=O)(=O)N=N/C=C2\C=CC=CN2O)cc1OC, the T/C (dose: 50.0 mg/kg/injection, schedule: Q07DX002 (ip), vehicle: saline with Tween-80) is reported as 175 % of control, the T/C [1] is reported as 91 % of control and the T/C [2] is reported as 166 % of control.
For O=C(O)c1cc(Cc2ccc(O)c(C(=O)O)c2)ccc1O (tested in a mixture with another compound), the T/C [3] was 71 % of control, the T/C [4] was 78 % of control and the T/C [5] was 70 % of control. For the same compound, the T/C [6] was 115 % of control and the T/C (dose: 400.0 mg/kg/injection, schedule: Q07DX002 (ip), vehicle: Klucel (hydroxypropylcellulose) (HPC)) was 63 % of control.
For COc1ccc(C(=O)C(CN(C)C)CN(C)C)cc1, the T/C (dose: 3.12 mg/kg/injection, schedule: Q07DX002 (ip), vehicle: saline) was 109 % of control, the T/C (dose: 6.25 mg/kg/injection, schedule: Q07DX002 (ip), vehicle: saline) was 113 % of control and the T/C (dose: 12.5 mg/kg/injection, schedule: Q07DX002 (ip), vehicle: saline) was 115 % of control. For the same compound, the T/C (dose: 25.0 mg/kg/injection, schedule: Q07DX002 (ip), vehicle: saline) was 102 % of control.
With O=NN(CCF)C(=O)NC1CCCCC1 the T/C (dose: 6.25 mg/kg/injection, schedule: Q07DX002 (ip), vehicle: Klucel (hydroxypropylcellulose) (HPC)) was 115 % of control and the T/C [3] was 77 % of control.
CC(=O)OC1C(O)C(C)OC(OC2C(OC(=O)C3CCC4C(C3)OC3(CC(OC(=O)/C=C/c5ccccc5)C(C)CO3)C43CO3)OC(C)C(O)C2OC(C)=O)C1O (configuration not stated) was tested, and the T/C (dose: 3.75 mg/kg/injection, schedule: Q07DX002 (ip), vehicle: distilled water + Tween-80) was 93 % of control, the T/C (dose: 7.5 mg/kg/injection, schedule: Q07DX002 (ip), vehicle: distilled water + Tween-80) was 95 % of control and the T/C (dose: 15.0 mg/kg/injection, schedule: Q07DX002 (ip), vehicle: distilled water + Tween-80) was 64 % of control. The T/C (dose: 30.0 mg/kg/injection, schedule: Q07DX002 (ip), vehicle: distilled water + Tween-80) was 168 % of control and the T/C (dose: 60.0 mg/kg/injection, schedule: Q07DX002 (ip), vehicle: distilled water + Tween-80) was 168 % of control.
In the case of O=C(COc1cccc2c(=O)cc(-c3ccccc3)oc12)OCCN1CCOCC1, the T/C (dose: 100.0 mg/kg/injection, schedule: Q07DX002 (ip), vehicle: saline) is reported as 81 % of control and the T/C (dose: 200.0 mg/kg/injection, schedule: Q07DX002 (ip), vehicle: saline) is reported as 43 % of control.
For N=c1ccn2c(n1)OC1C(O)C(CO)OC12 (configuration not stated), the T/C (dose: 100.0 mg/kg/injection, schedule: Q07DX003 (ip), vehicle: saline) was 90 % of control, the T/C (dose: 200.0 mg/kg/injection, schedule: Q07DX003 (ip), vehicle: saline) was 98 % of control and the T/C (dose: 400.0 mg/kg/injection, schedule: Q07DX003 (ip), vehicle: saline) was 92 % of control. For the same compound, the T/C (dose: 800.0 mg/kg/injection, schedule: Q07DX003 (ip), vehicle: saline) was 61 % of control and the T/C (dose: 1600.0 mg/kg/injection, schedule: Q07DX003 (ip), vehicle: saline) was 40 % of control.
For CN(C)C1C(=O)C(C(=O)NP(=O)(NCCCO)N(CCCl)CCCl)=C(O)C2(O)C(=O)C3=C(O)c4c(O)cccc4C(C)(O)C3CC12 (configuration not stated), the T/C [1] was 176 % of control and the T/C [2] was 42 % of control.
For Cc1c2cc[n+](CCN3CCCCC3)cc2c(C)c2c1[nH]c1ccc(O)cc12, the T/C (dose: 6.25 mg/kg/injection, schedule: Q07DX002 (ip), vehicle: suspension in saline) was 83 % of control, the T/C (dose: 12.5 mg/kg/injection, schedule: Q07DX002 (ip), vehicle: suspension in saline) was 71 % of control and the T/C (dose: 25.0 mg/kg/injection, schedule: Q07DX002 (ip), vehicle: suspension in saline) was 62 % of control. The T/C (dose: 50.0 mg/kg/injection, schedule: Q07DX002 (ip), vehicle: suspension in saline) was 53 % of control and the T/C (dose: 100.0 mg/kg/injection, schedule: Q07DX002 (ip), vehicle: suspension in saline) was 34 % of control.
In the case of O=C(O)CSc1c(Cl)c(=O)oc2ccc(Cl)cc12, the T/C (dose: 12.5 mg/kg/injection, schedule: Q07DX002 (ip), vehicle: Klucel (hydroxypropylcellulose) (HPC)) is reported as 73 % of control, the T/C [3] is reported as 58 % of control and the T/C [4] is reported as 57 % of control. The T/C [5] was 86 % of control and the T/C [6] was 67 % of control.
In the case of O.O.[NH-]C1CCCCC1[NH-].[Pt+2] (configuration not stated), the T/C (dose: 10.0 mg/kg/injection, schedule: Q07DX002 (ip), vehicle: dextrose) is reported as 72 % of control, the T/C (dose: 20.0 mg/kg/injection, schedule: Q07DX002 (ip), vehicle: dextrose) is reported as 60 % of control and the T/C (dose: 40.0 mg/kg/injection, schedule: Q07DX002 (ip), vehicle: dextrose) is reported as 29 % of control. For the same compound, the T/C (dose: 80.0 mg/kg/injection, schedule: Q07DX002 (ip), vehicle: dextrose) was 16 % of control and 17 % of control.
